pIC50: −log10 of the molar value. Read-outs that look alike come from different tables or passages of the source.
Experiments:
[1] = ester bond, 18-membered ring, PyBOP/HOBt/DIEA
K-RasG12V (Capan-1) = test: Potency assay: cellular pERK (AlphaLISA SureFire or In-Cell Western), Capan-1; type: cell-based; conditions: Homo sapiens; Capan-1 cells; 4 hours; in at least one of the assays (AlphaLISA or In-Cell Western); read-out: pERK IC50 with respect to K-RasG12V (Capan-1)
Text: The purpose of this assay is to measure the ability of test compounds to inhibit K-Ras in cells. Activated K-Ras induces increased phosphorylation of ERK at Threonine 202 and Tyrosine 204 (PERK). This procedure measures a decrease in cellular pERK in response to test compounds. The procedure described below in Capan-1 cells is applicable to K-RasG12V.
Note: This protocol may be executed substituting other cell lines to characterize inhibitors of other RAS variants, including, for example, NCI-H358 (K-Ras G12C), AsPC-1 (K-Ras G12D), Capan-1 (K-Ras G12V), or NCI-H1355 (K-Ras G13C).
Cells are grown and maintained using media and procedures recommended by the ATCC. On the day prior to compound addition, cells are plated in 384-well cell culture plates (40 μl/well) and grown overnight in a 37° C., 5% CO2 incubator. Test compounds are prepared in 10, 3-fold dilutions in DMSO, with a high concentration of 10 mM. On the day of assay, 40 nL of test compound is added to each well of cell culture plate using an Echo550 liquid handler (LabCyte®). Concentrations of test compound are tested in duplicate. After compound addition, cells are incubated 4 hours at 37° C., 5% CO2. Following incubation, culture medium is removed, and cells are washed once with phosphate buffered saline.
In some experiments, cellular pERK level is determined using the AlphaLISA SureFire Ultra p-ERK1/2 Assay Kit (PerkinElmer). Cells are lysed in 25 μL lysis buffer, with shaking at 600 RPM at room temperature. Lysate (10 μL) is transferred to a 384-well Opti-plate (PerkinElmer) and 5 μL acceptor mix is added. After a 2-hour incubation in the dark, 5 μL donor mix is added, plate is sealed, and incubated 2 hours at room temperature. Signal is read on an Envision plate reader (PerkinElmer) using standard AlphaLISA settings. Analysis of raw data is carried out in Excel (Microsoft) and Prism (GraphPad). Signal is plotted vs. the decadal logarithm of compound concentration, and IC50 is determined by fitting a 4-parameter sigmoidal concentration response model.
In other experiments, cellular pERK is determined by In-Cell Western. Following compound treatment, cells are washed twice with 200 μL tris buffered saline (TBS) and fixed for 15 minutes with 150 μL 4% paraformaldehyde in TBS. Fixed cells are washed 4 times for 5 minutes with TBS containing 0.1% Triton X-100 (TBST) and then blocked with 100 μL Odyssey blocking buffer (LI-COR) for 60 minutes at room temperature. Primary antibody (PERK, CST-4370, Cell Signaling Technology) is diluted 1:200 in blocking buffer, and 50 μL is added to each well and incubated overnight at 4° C. Cells are washed 4 times for 5 minutes with TBST. Secondary antibody (IR-800CW rabbit, LI-COR, diluted 1:800) and DNA stain DRAQ5 (LI-COR, diluted 1:2000) are added and incubated 1-2 hours at room temperature. Cells are washed 4 times for 5 minutes with TBST. Plates are scanned on a Li—COR Odyssey CLx Imager. Analysis of raw data is carried out in Excel (Microsoft) and Prism (GraphPad). Signal is plotted vs. the decadal logarithm of compound concentration, and IC50 is determined by fitting a 4-parameter sigmoidal concentration response model.

## CO[C@@H](C)c1ncccc1-c1c2c3cc(ccc3n1C1CC(C#N)C1)-c1coc(n1)[C@@H](N1CC3(COC3)C1)[C@H](NC(=O)OC(C)(C)C)C(=O)N1CCC[C@H](N1)C(=O)OCC(C)(C)C2 (stereo partly shown)
[1]; from CO[C@@H](C)c1ncccc1-c1c(CC(C)(C)CO)c2cc(-c3coc([C@H]([C@H](NC(=O)OC(C)(C)C)C(=O)N4CCC[C@@H](C(=O)O)N4)N4CC5(COC5)C4)n3)ccc2n1C1CC(C#N)C1, DMF, 12.5 mM, 25.0 °C, 2.0 h
  ring closure, yield after HPLC: 27.4%

## COC1CN([C@@H]2c3nc(cs3)-c3ccc4c(c3)c(c(-c3cccnc3[C@H](C)OC)n4C3CN(C4CC4)C3)CC(C)(C)COC(=O)[C@@H]3CCCN(N3)C(=O)[C@H]2NC(=O)OC(C)(C)C)C1
[1]; from COC1CN([C@H](c2nc(-c3ccc4c(c3)c(CC(C)(C)CO)c(-c3cccnc3[C@H](C)OC)n4C3CN(C4CC4)C3)cs2)[C@H](NC(=O)OC(C)(C)C)C(=O)N2CCC[C@@H](C(=O)O)N2)C1, DMF, 11.2 mM, 25.0 °C, 5.0 h
  ring closure, yield after HPLC: 40.2%

## CO[C@@H](C)c1ncc(C2CN(C3CC3)C2)cc1-c1c2c3cc(ccc3n1CCOC1CCOCC1)-c1csc(n1)[C@@H](N1CC3(COC3)C1)[C@H](NC(=O)[C@@H]1OC[C@@H]1C)C(=O)N1CCC[C@H](N1)C(=O)OCC(C)(C)C2
[1]; from CO[C@@H](C)c1ncc(C2CN(C3CC3)C2)cc1-c1c(CC(C)(C)CO)c2cc(-c3csc([C@H]([C@H](NC(=O)[C@@H]4OC[C@@H]4C)C(=O)N4CCC[C@@H](C(=O)O)N4)N4CC5(COC5)C4)n3)ccc2n1CCOC1CCOCC1, MeCN, 1.44 mM, 35.0 °C, 3.0 h
  ring closure, yield after HPLC: 20%

## CO[C@@H](C)c1ncccc1-c1c2c3cc(ccc3n1C1CN(C3CC3)C1)-c1coc(n1)[C@@H](N1CC3(CCCN3C)C1)[C@H](NC(=O)[C@@H]1[C@@H](C)[C@H]1c1ccncn1)C(=O)N1CCC[C@H](N1)C(=O)OCC(C)(C)C2 (atropisomer, axis not shown) [Example A1086]
K-RasG12V (Capan-1)
  pIC50: > 6.19
